Results: paper PMC8653295 (Chemistry (Weinheim an Der Bergstrasse, Germany), 2021)
Values joined by “and” are separate entries in the source; they are usually repeats but may differ in a detail not shown here. Identical values can stand only once. “Also recorded” adds a separate entry of the source.

How the values were obtained:
SARS‐CoV‐2 PL^pro = SARS‐CoV‐2 PL^pro (Severe acute respiratory syndrome coronavirus 2, UniProt P0DTD1); test: biochemical; assay type: biochemical; conditions: for inhibition of SARS-CoV-2 PLpro: 1 µM
SARS‐CoV PL^pro = SARS‐CoV PL^pro (Severe acute respiratory syndrome coronavirus, UniProt P0C6X7); test: biochemical; assay type: biochemical; conditions: for inhibition of SARS-CoV PLpro: 10 µM
SARS‐CoV‐2 = assay type: cell-based
[1] = target: interaction of the RBD of the SARS‐CoV‐2 S protein with the ACE2 receptor (Severe acute respiratory syndrome coronavirus 2, UniProt P0DTC2); assay type: binding; conditions: for inhibition of the S/ACE2 interaction: 20 µM

Molecule: O=C(O)CC([S-])C(=O)O.[Au+] (stereo not drawn) [Au‐2, aurothiomalate, reference compound]
- IC50 (SARS‐CoV‐2 PL^pro): 600 ± 250 nM
- IC50 SARS‐CoV‐2 PL^pro (SARS‐CoV‐2 PL^pro): Submicromolar
- inhibition of SARS-CoV-2 PLpro (SARS‐CoV‐2 PL^pro): 64% and > 50%
- concentration up to which no significant cytotoxic effects / tolerated well (CaLu‐3 cells): ≥ 500 µM
- concentration up to which no significant cytotoxic effects / tolerated well (Caco‐2 cells): ≥ 500 µM
- IC50 (SARS‐CoV PL^pro): 690 ± 200 nM
- IC50 SARS‐CoV PL^pro (SARS‐CoV PL^pro): Submicromolar
- inhibition of SARS-CoV PLpro (SARS‐CoV PL^pro): 91% and > 50%
- antiviral effect against SARS‐CoV‐2 replication (in words) (SARS‐CoV‐2): not active
- inhibition of the S/ACE2 interaction [1]: 18%

Molecule: CCC(CC)COC(=O)[C@H](C)N[P@](=O)(OC[C@H]1O[C@@](C#N)(c2ccc3c(N)ncnn23)[C@H](O)[C@@H]1O)Oc1ccccc1 [Remdesivir, remdesivir, reference compound]
- antiviral effect against SARS‐CoV‐2 replication (in words) (SARS‐CoV‐2): efficiently inhibited viral replication at low micromolar concentrations

Molecule: CCn1[c]([Au-][Cl])[n+](CC)c2cc(C(=O)OC)ccc21 [Au‐12]
- IC50 (SARS‐CoV‐2 PL^pro): 1100 ± 60 nM
- IC50 (SARS‐CoV PL^pro): 330 ± 110 nM
- antiviral effect against SARS‐CoV‐2 replication (in words) (SARS‐CoV‐2): at 6.25 and 25 μM concentrations efficiently inhibited; also recorded: antiviral activity starting at low micromolar concentrations
- inhibition of the S/ACE2 interaction [1]: 19%

Molecule: CO[C@H]1O[C@H](CNC(=O)C2CCN(C(=S)[S-])CC2)[C@@H](O)[C@H](O)[C@H]1O.[Au+3].[Br-].[Br-] [Au‐33]
- IC50 (SARS‐CoV‐2 PL^pro): 210 ± 40 nM
- inhibition of SARS-CoV-2 PLpro (SARS‐CoV‐2 PL^pro): 99%
- concentration up to which no significant cytotoxic effects / tolerated well (CaLu‐3 cells): ≥ 500 µM
- concentration up to which no significant cytotoxic effects / tolerated well (Caco‐2 cells): ≥ 500 µM
- IC50 (SARS‐CoV PL^pro): 1040 ± 270 nM
- inhibition of SARS-CoV PLpro (SARS‐CoV PL^pro): 78%
- antiviral effect against SARS‐CoV‐2 replication (in words) (SARS‐CoV‐2): inactive at low dosages; also recorded: completely blocked SARS‐CoV‐2 at 500 μM; also recorded: strongly blocked viral replication at a high dosage of 500 μM
- inhibition of the S/ACE2 interaction [1]: 10%

Molecule: [Pd16Na2O26 (OH)3Cl3((CH3)2As)8] ⋅ 0.25Na(CH3)2AsO2 ⋅ 17H2O [POM‐11]
- inhibition of SARS-CoV-2 PLpro (SARS‐CoV‐2 PL^pro): 85%
- concentration up to which no significant cytotoxic effects / tolerated well (CaLu‐3 cells): ≥ 200 µM
- concentration up to which no significant cytotoxic effects / tolerated well (Caco‐2 cells): ≥ 200 µM
- inhibition of SARS-CoV PLpro (SARS‐CoV PL^pro): 100%
- antiviral effect against SARS‐CoV‐2 replication (in words) (SARS‐CoV‐2): antiviral activity starting at low micromolar concentrations
- concentration at which antiviral effects were shown (SARS‐CoV‐2): 50 µM
- inhibition of the S/ACE2 interaction [1]: 75%

Molecule: Na12[PbO8Pd12 (PO4)8] ⋅ 38H2O [POM‐1]
- inhibition of SARS-CoV-2 PLpro (SARS‐CoV‐2 PL^pro): 68%
- concentration up to which no significant cytotoxic effects / tolerated well (CaLu‐3 cells): ≥ 200 µM
- concentration up to which no significant cytotoxic effects / tolerated well (Caco‐2 cells): ≥ 200 µM
- inhibition of SARS-CoV PLpro (SARS‐CoV PL^pro): 100%
- inhibition of the S/ACE2 interaction [1]: 52%

Molecule: CO[C@H]1O[C@H](CO)[C@@H](O)[C@H](O)[C@H]1NC(=O)C1CCN(C(=S)[S-])CC1.[Au+3].[Br-].[Br-] [Au‐34]
- IC50 (SARS‐CoV‐2 PL^pro): 90 ± 40 nM
- inhibition of SARS-CoV-2 PLpro (SARS‐CoV‐2 PL^pro): 98%
- concentration up to which no significant cytotoxic effects / tolerated well (CaLu‐3 cells): ≥ 500 µM
- concentration up to which no significant cytotoxic effects / tolerated well (Caco‐2 cells): ≥ 500 µM
- IC50 (SARS‐CoV PL^pro): 1150 ± 340 nM
- inhibition of SARS-CoV PLpro (SARS‐CoV PL^pro): 86%
- antiviral effect against SARS‐CoV‐2 replication (in words) (SARS‐CoV‐2): inactive at low dosages; also recorded: completely blocked SARS‐CoV‐2 at 500 μM; also recorded: strongly blocked viral replication at a high dosage of 500 μM
- inhibition of the S/ACE2 interaction [1]: 15%

Molecule: [Cl-].[Cl-].[Ti+4].c1cc[cH-]c1.c1cc[cH-]c1 [Ti‐1, titanocene dichloride, reference compound]
- activity against SARS‐CoV‐2 PL^pro (in words) (SARS‐CoV‐2 PL^pro): inactive
- inhibition of SARS-CoV-2 PLpro (SARS‐CoV‐2 PL^pro): -13%
- concentration up to which no significant cytotoxic effects / tolerated well (CaLu‐3 cells): ≥ 500 µM
- concentration up to which no significant cytotoxic effects / tolerated well (Caco‐2 cells): ≥ 500 µM
- activity against SARS‐CoV PL^pro (in words) (SARS‐CoV PL^pro): inactive
- inhibition of SARS-CoV PLpro (SARS‐CoV PL^pro): 6%
- antiviral effect against SARS‐CoV‐2 replication (in words) (SARS‐CoV‐2): active at 125 and 500 μM; also recorded: strongly blocked viral replication at a high dosage of 500 μM
- concentration at which antiviral effects were shown (SARS‐CoV‐2): higher than 100 μM
- inhibition of the S/ACE2 interaction [1]: 69%
- IC50 ([1]; read-out: IC50 as inhibitors of the S/ACE2 interaction): 3900 ± 300 nM

Molecule: Na12[SnO8Pd12(PO4)8] ⋅ 43H2O [POM‐2]
- inhibition of SARS-CoV-2 PLpro (SARS‐CoV‐2 PL^pro): 66%
- concentration up to which no significant cytotoxic effects / tolerated well (CaLu‐3 cells): ≥ 200 µM
- concentration up to which no significant cytotoxic effects / tolerated well (Caco‐2 cells): ≥ 200 µM
- inhibition of SARS-CoV PLpro (SARS‐CoV PL^pro): 100%
- inhibition of the S/ACE2 interaction [1]: 50%

Molecule: Rb5.5Na4.5[{(p‐tolyl)Sb}4(PW9O34)2] ⋅ 40H2O [POM‐6]
- inhibition of SARS-CoV-2 PLpro (SARS‐CoV‐2 PL^pro): 58%
- cytotoxicity (in words) (CaLu‐3 cells): strongly toxic
- cytotoxicity (in words) (Caco‐2 cells): strongly toxic
- inhibition of SARS-CoV PLpro (SARS‐CoV PL^pro): 80%
- inhibition of the S/ACE2 interaction [1]: 91%
